Reference: patent publication US12630564B2, “Internal cyclic sulphiamidine amide-aryl amide compound and use thereof for treating hepatitis B” (SHANGHAI LONGWOOD BIOPHARMACEUTICALS CO., LTD., priority 2019, dated 2026)

Legend:
Type in all cases: cell-based
HepG2 cells = assay: Determination of cytotoxicity, HepG2 cells, resazurin assay (Experiment 3); conditions: 4 days
Experimental: (§1) Experiment 3: Determination of Cytotoxicity
(§2) The cytotoxicity of the test compound was tested using HepG2 cells. The cells were incubated for 4 days in the presence of the test compound. Cell activity was assessed using the resazurin assay.

[1] = system: HBV DNA in the supernatant of HepG2.2.15; assay: Determination of anti-HBV activity in HepG2.2.15 cell, HBV DNA in supernatant by qPCR (Experiment 2); conditions: Hepatitis B virus, HepG2.2.15, HepG2.2.15 cells
Experimental: Experiment 2: Determination of Anti-HBV Activity in HepG2.2.15 Cell
• QIAamp 96 DNA Blood Kit (12) (Qiagen, Item No. 51162); • FastStart Universal Probe Master (Roche, Item No. 04914058001); • Cell-titer Glo Testing Reagent (Promega, Item No. G7573).
Compound dilution: all the compounds for in vitro anti-HBV activity assay and cytotoxicity assay were 3-fold diluted into 8 concentrations. The final starting concentration of the tested compound was 30 μM, the final starting concentration of reference compound GLS4 was 1 μM, and the final concentration of DMSO was 0.5%.
HepG2.2.15 cells (4×10^4 cells/well) was inoculated into 96-well plates and cultured overnight at 37° C., 5% CO2. On the second day, fresh culture medium containing different concentrations of compounds was added into the culture wells. On the fifth day, the old culture solution in the culture well was aspirated and fresh culture medium containing different concentrations of the compound was added.
On the eighth day, the supernatant in the culture well was collected for extraction of HBV DNA, and the content of HBV DNA in the supernatant of HepG2.2.15 was detected by qPCR. After the supernatant was collected, the medium and Cell-titer Glo reagent were added into the culture well, and the chemiluminescence value of each well was measured by microplate reader.
The activity calculation formula was as follows: Y=Bottom+(Top−Bottom)/(1+10^((Log IC50−X)*HillSlope)); • wherein, • X represents the logarithm of the concentration, Y represents the effect value, and Y starts from the bottom and fits to the top by S type fitting.
Bottom represents the bottom of the curve;
Top represents the top of the curve;
HillSlope represents the absolute value of the maximum slope of the curve.

[2] = Determination of cytotoxicity, HepG2 cells, resazurin assay (Experiment 3); conditions: human
Experimental: as §1, §2

SMILES	CC50 (HepG2 cells)	EC50 [1]	CC50 at 4 days [2]
Cn1cc2c(c1C(=O)Nc1ccc(F)c(C#N)c1)CC[C@H](C1CC1)NS2(=N)=O (single isomer, unassigned) [Compound 100a02]	> 30000 nM		
Cn1cc2c(c1C(=O)Nc1ccc(F)c(C#N)c1)C=C[C@H](CC1CC1)NS2(=N)=O (single isomer, unassigned) [Compound 100b04]		0.1 to 100 nM	> 30000 nM
Cn1cc2c(c1C(=O)Nc1ccc(F)c(C#N)c1)CC[C@H](C1CC1)NS2(=N)=O (single isomer, unassigned) [Compound 100a01]			> 30000 nM
CC(C)[C@@H]1C=Cc2c(cn(C)c2C(=O)Nc2ccc(F)c(C#N)c2)S(=N)(=O)N1 (single isomer, unassigned) [Compound 10h2]	> 30000 nM		
COc1ccc(C[C@H]2C=Cc3c(cn(C)c3C(=O)Nc3ccc(F)c(C#N)c3)S(=N)(=O)N2)cc1 (single isomer, unassigned) [Compound 100c16]		0.1 to 100 nM	> 30000 nM
CC(C)[C@H]1C=Cc2c(cn(C)c2C(=O)Nc2ccc(F)c(C#N)c2)S(=N)(=O)N1 (single isomer, unassigned) [Compound 10b2]	> 30000 nM		
COc1ccc(C[C@H]2CCc3c(cn(C)c3C(=O)Nc3ccc(F)c(C#N)c3)S(=N)(=O)N2)cc1 (single isomer, unassigned) [Compound 100c14]		0.1 to 100 nM	> 30000 nM
Cn1cc2c(c1C(=O)Nc1ccc(F)c(C#N)c1)C=C[C@H](C1CC1)NS2(=N)=O (single isomer, unassigned) [Compound 100a04]		0.1 to 100 nM	> 30000 nM
Cn1cc2c(c1C(=O)Nc1ccc(F)c(C#N)c1)C=C[C@H](Cc1ccc(F)cc1)NS2(=N)=O (single isomer, unassigned) [Compound 100c04]		0.1 to 100 nM	> 30000 nM
Cn1cc2c(c1C(=O)Nc1ccc(F)c(C#N)c1)CC[C@H](CC1CC1)NS2(=N)=O (single isomer, unassigned) [Compound 100b02]		0.1 to 100 nM	> 30000 nM
Cn1cc2c(c1C(=O)Nc1ccc(F)c(C#N)c1)CC[C@H](Cc1ccc(F)cc1)NS2(=N)=O (single isomer, unassigned) [Compound 100c02]		0.1 to 100 nM	> 30000 nM
